Earlier results in patent US20250249020A1, “COLLOIDALLY STABLE HEME-ALBUMIN COMPLEXES AND METHODS OF MAKING AND USING THEREOF” (Ohio State Innovation Foundation, priority 2022, published 2025).

Target: Hpx
Settings: heme binding, background

Kd: ~0.01 µM
Structure (SMILES): C=CC1=C(C)c2cc3[n-]c(cc4[n-]c(cc5nc(cc1n2)C(C)=C5C=C)c(C)c4CCC(=O)O)c(CCC(=O)O)c3C.[Fe+2] [heme]
